Publication PMC10057847, “Precision engineering of biological function with large-scale measurements and machine learning” (PLOS ONE, 2023)

Key:
Test in all cases: In vivo IPTG dose-response of LacI-regulated eYFP expression from the pVER plasmid in E. coli grown in rich M9 medium at 37 °C, measured by flow cytometry and fitted to the Hill equation by Bayesian MCMC (posterior mean and SD).
Settings in all cases: read-out: log_ec50 (base-10 logarithm of EC50 in μmol/L) (converted)
pVER-IPTG-004(S70R) = target: T1, pVER-IPTG-004(S70R) (Escherichia coli, UniProt P03023, A87P/E357G/S70R/V301M); assay type: cell-based, E. coli MG1655Δlac
T1 construct: gene lacI; LacI expressed from pVER plasmid
Protocol: (§1) All reported measurements were completed using E. coli strain MG1655Δlac, in which the lactose operon of E. coli strain MG1655 (ATCC #47076) was replaced with the bleomycin resistance gene from Streptoalloteichus hindustanus (Shble).
(§2) Dose-response curves were measured with flow cytometry using E. coli MG1655Δlac transformed with variants of the pVER plasmid, described previously. The plasmid contained different variants of the lacI coding DNA sequence (CDS), as described in the text, and an expression cassette with enhanced yellow fluorescent protein (eYFP) under the control of the lactose operator (lacO). The lacI CDS was verified with Sanger sequencing for each variant.
(§3) All cultures were grown in a rich M9 media (3 g/L KH2PO4, 6.78 g/L Na2HPO4, 0.5 g/L NaCl, 1 g/L NH4Cl, 0.1 mmol/L CaCl2, 2 mmol/L MgSO4, 4% glycerol, and 20 g/L casamino acids) supplemented with 50 μg/mL kanamycin.
(§4) • Prepare first growth plate, with 450 μL rich M9 media in each well. • Pipette 50 μL of starter culture into each well in rows B-G of the plate (leaving rows A and H blank). • Use a E. coli containing a different lacI variant for each row. • Seal first growth plate with gas permeable membrane. • Incubate plate in plate reader for 12 h to 14 h. • Grow to stationary to provide a reproducible starting point for each measurement. • Prepare second growth plate with 490 μL in each well. • Dilution series of isopropyl-β-D-thiogalactopyranoside (IPTG): 11 columns of a 2-fold serial dilution gradient and one column with zero IPTG. • Ten minutes before the end of the incubation cycle for the first growth plate, move the second growth plate to a heated station set to 47°C. • Ten minutes at 47°C will pre-warm the media in the plate to 37°C. • De-seal the first growth plate (after completion of the stationary-phase incubation cycle). • Pipette 10 μL from each well in the first growth plate to the corresponding well in the second growth plate. • 50-fold dilution; using a 96-channel pipetting head. • Seal second growth plate with gas permeable membrane. • Incubate second growth plate in plate reader for 160 minutes. • Sufficient for approximately 10-fold increase in cell density or 3.3 doublings. • Prepare third growth plate with 450 μL in each well. • Same dilution series as in second growth plate. • Ten minutes before the end of the incubation cycle for the second growth plate, move the third growth plate to a heated station set to 47°C. • De-seal the second growth plate (after completion of the 160 minute incubation cycle). • Pipette 50 μL from each well in the second growth plate to the corresponding well in the third growth plate. • 10-fold dilution; using a 96-channel pipetting head. • Seal third growth plate with gas permeable membrane. • Incubate third growth plate in plate reader for 160 minutes. • Prepare flow cytometry sample plate (round-bottom 96-well plate, Falcon, 351177). • Each well in rows B-G: 195 μL 1x PBS with 170 μg/mL chloramphenicol (Fisher BioReagents, cat. #BP904-100). • Rows A and H: PBS blanks, focusing fluid blanks, and space for calibration bead sample • At the end of the incubation cycle for the third growth plate, pipette 5 μL from each well to the corresponding well in the flow cytometry sample plate.
(§5) Flow cytometry samples were measured with an Attune NxT flow cytometer equipped with a 96-well plate autosampler using a 488 nm excitation laser and a 530 nm ± 15 nm bandpass emission filter. Blank samples were measured with each batch of cell measurements, and an automated gating algorithm was used to discriminate cell events from non-cell events. Fluorescence calibration beads (Spherotech, part no. RCP-30-20A) were also measured with each batch of samples to facilitate calibration of flow cytometry data to molecules of equivalent fluorescein (MEF). […]

pVER-IPTG-003 = target: T2, pVER-IPTG-003 (Escherichia coli, UniProt P03023, A337V/G200V/H74Y/K290R/L262M/Q306H/R207H/V119I/V52M); assay type: cell-based, E. coli MG1655Δlac
T2 construct: gene lacI; LacI expressed from pVER plasmid; stop codon at 352
Protocol: as §1, §2, §3, §4, §5

pVER-IPTG-081 = target: T3, pVER-IPTG-081 (Escherichia coli, UniProt P03023, M347V/P285S/S308P/V301M); assay type: cell-based, E. coli MG1655Δlac
T3 construct: gene lacI; LacI expressed from pVER plasmid
Protocol: as §1, §2, §3, §4, §5

pVER-IPTG-002 = target: T4, pVER-IPTG-002 (Escherichia coli, UniProt P03023, M254I/S158R/T154I/V238D/V264I/V96E); assay type: cell-based, E. coli MG1655Δlac
T4 construct: gene lacI; LacI expressed from pVER plasmid
Protocol: as §1, §2, §3, §4, §5

pVER-IPTG-004(V80L) = target: T5, pVER-IPTG-004(V80L) (Escherichia coli, UniProt P03023, A87P/E357G/V301M/V80L); assay type: cell-based, E. coli MG1655Δlac
T5 construct: gene lacI; LacI expressed from pVER plasmid
Protocol: as §1, §2, §3, §4, §5

pVER-IPTG-008 = target: T6, pVER-IPTG-008 (Escherichia coli, UniProt P03023, A266T/I237T/I289F/S61L/T258S); assay type: cell-based, E. coli MG1655Δlac
T6 construct: gene lacI; LacI expressed from pVER plasmid; stop codon at 351
Protocol: as §1, §2, §3, §4, §5

pVER-IPTG-007 = target: T7, pVER-IPTG-007 (Escherichia coli, UniProt P03023, A199V/D88Y/K84E/L342M/L90P/Q153L/R351P/S358R); assay type: cell-based, E. coli MG1655Δlac
T7 construct: gene lacI; LacI expressed from pVER plasmid
Protocol: as §1, §2, §3, §4, §5

pVER-IPTG-004(V136E) = target: T8, pVER-IPTG-004(V136E) (Escherichia coli, UniProt P03023, A87P/E357G/V136E/V301M); assay type: cell-based, E. coli MG1655Δlac
T8 construct: gene lacI; LacI expressed from pVER plasmid
Protocol: as §1, §2, §3, §4, §5

pVER-IPTG-078 = target: T9, pVER-IPTG-078 (Escherichia coli, UniProt P03023, A110V/A72V/N142D/S322L); assay type: cell-based, E. coli MG1655Δlac
T9 construct: gene lacI; LacI expressed from pVER plasmid
Protocol: as §1, §2, §3, §4, §5

pVER-IPTG-009 = target: T10, pVER-IPTG-009 (Escherichia coli, UniProt P03023, I210L/I283N/M254T/N157D/P76Q/Q181H/V150A); assay type: cell-based, E. coli MG1655Δlac
T10 construct: gene lacI; LacI expressed from pVER plasmid
Protocol: as §1, §2, §3, §4, §5

pVER-IPTG-080 = target: T11, pVER-IPTG-080 (Escherichia coli, UniProt P03023, A109E/D165V/E259G/G166A/R255C); assay type: cell-based, E. coli MG1655Δlac
T11 construct: gene lacI; LacI expressed from pVER plasmid
Protocol: as §1, §2, §3, §4, §5

pVER-IPTG-WT = target: T12, pVER-IPTG-WT (Escherichia coli, UniProt P03023); assay type: cell-based
T12 construct: gene lacI; full-length LacI expressed from pVER plasmid; wild type
Protocol: as §1
as §2, with “variant. […]” for “variant.”
as §5

T9 sequence (P03023 whole entry A72V/A110V/N142D/S322L): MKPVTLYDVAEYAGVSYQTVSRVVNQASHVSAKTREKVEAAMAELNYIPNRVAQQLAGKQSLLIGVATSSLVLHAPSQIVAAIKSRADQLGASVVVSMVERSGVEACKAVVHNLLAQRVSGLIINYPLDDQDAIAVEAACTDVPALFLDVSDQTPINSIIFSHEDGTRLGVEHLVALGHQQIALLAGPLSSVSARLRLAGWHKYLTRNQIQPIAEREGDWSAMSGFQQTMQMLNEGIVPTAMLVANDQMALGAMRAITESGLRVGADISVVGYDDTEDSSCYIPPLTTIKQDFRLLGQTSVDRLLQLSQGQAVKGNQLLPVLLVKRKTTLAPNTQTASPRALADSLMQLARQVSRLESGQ
T8 sequence (P03023 whole entry A87P/V136E/V301M/E357G): as the sequence (P03023 whole entry A72V/A110V/N142D/S322L) above, with V72A, A87P, V110A, V136E, D142N, V301M, L322S, E357G counted along it
T5 sequence (P03023 whole entry V80L/A87P/V301M/E357G): as the sequence (P03023 whole entry A72V/A110V/N142D/S322L) above, with V72A, V80L, A87P, V110A, D142N, V301M, L322S, E357G counted along it
T7 sequence (P03023 whole entry K84E/D88Y/L90P/Q153L/A199V/L342M/R351P/S358R): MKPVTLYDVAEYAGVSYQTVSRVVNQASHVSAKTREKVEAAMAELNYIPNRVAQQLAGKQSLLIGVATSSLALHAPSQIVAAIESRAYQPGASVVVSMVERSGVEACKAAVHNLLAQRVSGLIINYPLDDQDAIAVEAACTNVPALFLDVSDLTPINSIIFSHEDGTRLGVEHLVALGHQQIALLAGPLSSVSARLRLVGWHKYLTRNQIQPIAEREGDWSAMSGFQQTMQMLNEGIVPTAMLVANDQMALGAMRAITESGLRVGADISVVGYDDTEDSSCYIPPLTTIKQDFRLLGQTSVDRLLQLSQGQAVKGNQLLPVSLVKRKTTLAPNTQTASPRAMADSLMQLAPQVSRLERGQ
T1 sequence (P03023 whole entry S70R/A87P/V301M/E357G): as the sequence (P03023 whole entry A72V/A110V/N142D/S322L) above, with S70R, V72A, A87P, V110A, D142N, V301M, L322S, E357G counted along it
T11 sequence (P03023 whole entry A109E/D165V/G166A/R255C/E259G): as the sequence (P03023 whole entry A72V/A110V/N142D/S322L) above, with V72A, A109E, V110A, D142N, D165V, G166A, R255C, E259G, L322S counted along it
T12 sequence (P03023 whole entry): as the sequence (P03023 whole entry A72V/A110V/N142D/S322L) above, with V72A, V110A, D142N, L322S counted along it
T2 sequence (P03023 1-351 V52M/H74Y/V119I/G200V/R207H/L262M/K290R/Q306H/A337V): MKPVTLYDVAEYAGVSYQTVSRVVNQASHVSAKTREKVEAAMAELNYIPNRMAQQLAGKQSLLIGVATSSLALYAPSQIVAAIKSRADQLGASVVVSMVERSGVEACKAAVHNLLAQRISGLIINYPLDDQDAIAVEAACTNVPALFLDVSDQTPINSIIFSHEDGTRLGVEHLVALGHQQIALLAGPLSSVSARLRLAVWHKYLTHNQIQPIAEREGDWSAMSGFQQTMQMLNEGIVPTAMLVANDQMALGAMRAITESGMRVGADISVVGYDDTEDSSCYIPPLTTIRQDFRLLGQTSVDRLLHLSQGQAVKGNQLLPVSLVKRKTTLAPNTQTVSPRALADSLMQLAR
T3 sequence (P03023 whole entry P285S/V301M/S308P/M347V): as the sequence (P03023 whole entry A72V/A110V/N142D/S322L) above, with V72A, V110A, D142N, P285S, V301M, S308P, L322S, M347V counted along it
T10 sequence (P03023 whole entry P76Q/V150A/N157D/Q181H/I210L/M254T/I283N): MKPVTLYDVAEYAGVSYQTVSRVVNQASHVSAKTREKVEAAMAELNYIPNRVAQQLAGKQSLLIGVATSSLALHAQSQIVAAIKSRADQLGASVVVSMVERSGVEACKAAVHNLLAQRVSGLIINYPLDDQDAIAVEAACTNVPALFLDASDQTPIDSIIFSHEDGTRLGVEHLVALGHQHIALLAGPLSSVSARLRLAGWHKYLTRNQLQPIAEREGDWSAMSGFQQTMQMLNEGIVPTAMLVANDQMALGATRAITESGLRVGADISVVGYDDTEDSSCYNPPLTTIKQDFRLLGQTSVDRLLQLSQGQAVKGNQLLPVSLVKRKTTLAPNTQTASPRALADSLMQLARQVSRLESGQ
T4 sequence (P03023 whole entry V96E/T154I/S158R/V238D/M254I/V264I): as the sequence (P03023 whole entry A72V/A110V/N142D/S322L) above, with V72A, V96E, V110A, D142N, T154I, S158R, V238D, M254I, V264I, L322S counted along it
T6 sequence (P03023 1-350 S61L/I237T/T258S/A266T/I289F): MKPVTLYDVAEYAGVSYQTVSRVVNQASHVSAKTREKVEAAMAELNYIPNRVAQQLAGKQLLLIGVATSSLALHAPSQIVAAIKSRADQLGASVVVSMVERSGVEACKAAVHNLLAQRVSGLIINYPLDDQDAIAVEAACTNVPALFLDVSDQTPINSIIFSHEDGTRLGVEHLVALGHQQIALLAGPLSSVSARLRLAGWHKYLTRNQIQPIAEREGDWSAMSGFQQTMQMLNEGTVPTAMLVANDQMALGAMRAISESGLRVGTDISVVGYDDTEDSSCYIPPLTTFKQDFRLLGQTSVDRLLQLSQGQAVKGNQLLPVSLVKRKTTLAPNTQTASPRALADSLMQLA

`CC(C)S[C@@H]1O[C@H](CO)[C@H](O)[C@H](O)[C@H]1O` [IPTG, isopropyl-β-D-thiogalactopyranoside] gave an EC50 (pVER-IPTG-004(S70R)) of 3890 µmol/L, an EC50 (pVER-IPTG-003) of 162 µmol/L and an EC50 (pVER-IPTG-081) of 8.46 µmol/L. The EC50 (pVER-IPTG-002) was 233 µmol/L, the EC50 (pVER-IPTG-004(V80L)) was 36.8 µmol/L and the EC50 (pVER-IPTG-008) was 77.3 µmol/L. It also gave an EC50 (pVER-IPTG-007) of 29.4 µmol/L, an EC50 (pVER-IPTG-004(V136E)) of 421000 µmol/L and an EC50 (pVER-IPTG-078) of 3.61 µmol/L. It also gave an EC50 (pVER-IPTG-009) of 169 µmol/L, an EC50 (pVER-IPTG-080) of 6.96 µmol/L and an EC50 (pVER-IPTG-WT) of 119 µmol/L.
